Measured values reported in ChEMBL document CHEMBL1671765, “Microbiologic and clinical implications of bacteremia due to extended-spectrum-beta-lactamase-producing Klebsiella pneumoniae with or without plasmid-mediated AmpC beta-lactamase DHA-1” (2010).
Converted amounts (≈) assume the structure as drawn.

How the values were obtained:
Assay type in all cases: functional
Klebsiella pneumoniae [1] = test: Antibacterial activity against ESBL-producing Klebsiella pneumoniae by Etest in presence of Tazobactam
Klebsiella pneumoniae [2] = test: Antibacterial activity against plasmid-mediated AmpC beta-Lactamase DHA-1 and ESBL-producing Klebsiella pneumoniae by Etest in presence of Tazobactam
Klebsiella pneumoniae [3] = test: Antibacterial activity against plasmid-mediated AmpC beta-Lactamase DHA-1 and ESBL-producing Klebsiella pneumoniae by Etest
Klebsiella pneumoniae [4] = test: Antibacterial activity against ESBL-producing Klebsiella pneumoniae by Etest

Structure (SMILES)	MIC50 (Klebsiella pneumoniae [1])	MIC90 (Klebsiella pneumoniae [1])	MIC50 (Klebsiella pneumoniae [2])	MIC90 (Klebsiella pneumoniae [2])	MIC50 (Klebsiella pneumoniae [3])	MIC90 (Klebsiella pneumoniae [3])	MIC50 (Klebsiella pneumoniae [4])	MIC90 (Klebsiella pneumoniae [4])	MIC (Klebsiella pneumoniae [3])	MIC (Klebsiella pneumoniae [4])
CCN1CCN(C(=O)N[C@@H](C(=O)N[C@@H]2C(=O)N3[C@@H]2SC(C)(C)[C@@H]3C(=O)O)c2ccccc2)C(=O)C1=O [PIPERACILLIN]	8 µg/mL	32 µg/mL	8 µg/mL	64 µg/mL	–	–	–	–	–	–
C[C@@H](O)[C@H]1C(=O)N2C(C(=O)O)=C(SCCNC=N)C[C@H]12 [IMIPENEM ANHYDROUS]	–	–	–	–	0.5 µg/mL (≈ 1.67 µM)	2 µg/mL (≈ 6.68 µM)	0.25 µg/mL (≈ 0.835 µM)	0.5 µg/mL (≈ 1.67 µM)	–	–
NCC[C@H](O)C(=O)N[C@@H]1C[C@H](N)[C@@H](O[C@H]2O[C@H](CN)[C@@H](O)[C@H](O)[C@H]2O)[C@H](O)[C@H]1O[C@H]1O[C@H](CO)[C@@H](O)[C@H](N)[C@H]1O [AMIKACIN]	–	–	–	–	> 256 µg/mL	> 256 µg/mL	4 µg/mL (≈ 6.83 µM)	32 µg/mL (≈ 54.6 µM)	–	–
C[C@@H](O)[C@H]1C(=O)N2C(C(=O)O)=C(S[C@@H]3CN[C@H](C(=O)N(C)C)C3)[C@H](C)[C@H]12 [MEROPENEM]	–	–	–	–	0.12 µg/mL (≈ 0.313 µM)	0.5 µg/mL (≈ 1.3 µM)	0.03 µg/mL (≈ 0.0782 µM)	0.06 µg/mL (≈ 0.156 µM)	–	–
O=C(O)c1cn(C2CC2)c2cc(N3CCNCC3)c(F)cc2c1=O [CIPROFLOXACIN]	–	–	–	–	> 32 µg/mL	> 32 µg/mL	0.125 µg/mL (≈ 0.377 µM)	8 µg/mL (≈ 24.1 µM)	–	–
C[C@@H](O)[C@H]1C(=O)N2C(C(=O)O)=C(S[C@@H]3CN[C@H](C(=O)Nc4cccc(C(=O)O)c4)C3)[C@H](C)[C@H]12 [ERTAPENEM]	–	–	–	–	0.5 µg/mL (≈ 1.05 µM)	2 µg/mL (≈ 4.21 µM)	0.015 µg/mL (≈ 0.0315 µM)	0.5 µg/mL (≈ 1.05 µM)	0.5 µg/mL (≈ 1.05 µM)	0.015 µg/mL (≈ 0.0315 µM)
